Results reported in ChEMBL document CHEMBL5360581, “Discovery of a novel dual functional phenylpyrazole-styryl hybrid that induces apoptotic and autophagic cell death in bladder cancer cells” (Eur J Med Chem, 2023).
Calls of active or inactive are those of the source. The rule behind the calls is not given here.

What was measured:
[1] = Selectivity index, ratio of IC50 for cytotoxicity against human NHDF cells to IC50 for cytotoxicity against human EJ-28 cells
[2] = Selectivity index, ratio of IC50 for cytotoxicity against human NHDF cells to IC50 for cytotoxicity against human A549 cells; assay type: toxicity, cell-based; settings: NHDF cells and A549 cells, read-out: Ratio IC50
SW-620 [3] = assay: Cytotoxicity against human SW620 cells assessed inhibition of cell growth incubated for 72 hrs by MTT assay; assay type: functional, cell-based; settings: SW-620, 72 h
A549 [4] = assay: Cytotoxicity against human A549 cells assessed inhibition of cell growth incubated for 72 hrs by MTT assay; assay type: functional, cell-based; settings: A549, 72 h
[5] = Cytotoxicity against human NHDF cells assessed inhibition of cell growth incubated for 72 hrs by MTT assay; assay type: toxicity, cell-based
MCF7 [6] = assay: Antiproliferative activity against human MCF7 cells assessed as reduction in cell viability at 20 uM measured for 72 hrs by MTT assay; assay type: functional, cell-based
A549 [7] = assay: Antiproliferative activity against human A549 cells assessed as reduction in cell viability at 20 uM measured for 72 hrs by MTT assay; assay type: functional, cell-based
[8] = Selectivity index, ratio of IC50 for cytotoxicity against human NHDF cells to IC50 for cytotoxicity against human HT-1080 cells
HT-1080 [9] = assay: Antiproliferative activity against human HT-1080 cells assessed as reduction in cell viability at 20 uM measured for 72 hrs by MTT assay; assay type: functional, cell-based
SW-620 [10] = assay: Antiproliferative activity against human SW620 cells assessed as reduction in cell viability at 20 uM measured for 72 hrs by MTT assay; assay type: functional, cell-based
HT-1080 [11] = assay: Cytotoxicity against human HT-1080 cells assessed inhibition of cell growth incubated for 72 hrs by MTT assay; assay type: functional, cell-based; settings: HT-1080, 72 h
EJ-28 [12] = assay: Antiproliferative activity against human EJ-28 cells assessed as reduction in cell viability at 20 uM measured for 72 hrs by MTT assay; assay type: functional, cell-based
[13] = Selectivity index, ratio of IC50 for cytotoxicity against human NHDF cells to IC50 for cytotoxicity against human SW620 cells
[14] = Selectivity index, ratio of IC50 for cytotoxicity against human NHDF cells to IC50 for cytotoxicity against human MCF7 cells; assay type: toxicity, cell-based; settings: NHDF cells and MCF7 cells, read-out: Ratio IC50
EJ-28 [15] = assay: Cytotoxicity against human EJ-28 cells assessed inhibition of cell growth incubated for 72 hrs by MTT assay; assay type: functional, cell-based; settings: EJ-28, 72 h
MCF7 [16] = assay: Cytotoxicity against human MCF7 cells assessed inhibition of cell growth incubated for 72 hrs by MTT assay; assay type: functional, cell-based; settings: MCF7, 72 h

| SMILES | Ratio IC50 [1] | selectivity ratio [2] | IC50 (SW-620 [3]) | IC50 (A549 [4]) | IC50 at 72 h [5] | Activity (MCF7 [6]) | Activity (A549 [7]) | Ratio IC50 [8] | Activity (HT-1080 [9]) | Activity (SW-620 [10]) | IC50 (HT-1080 [11]) | Activity (EJ-28 [12]) | Ratio IC50 [13] | selectivity ratio [14] | IC50 (EJ-28 [15]) | IC50 (MCF7 [16]) |
| --- | --- | --- | --- | --- | --- | --- | --- | --- | --- | --- | --- | --- | --- | --- | --- | --- |
| COc1cc(/C=C/c2cc(-c3ccccc3O)n(-c3ccccc3)n2)cc(OC)c1OC | >3.4 | > 3.4 | 7.6 µM | 14.6 µM | > 50 µM | Active | Active | >3.4 | Active | Active | 14.1 µM | Active | >3.4 | > 3.4 | 12.3 µM | 10.4 µM |
| Oc1ccccc1-c1cc(/C=C/c2ccc(Cl)s2)nn1-c1ccccc1 | 1.1 | 1.1 | 16.3 µM | 21.1 µM | 18.5 µM | Active | Active | 1.1 | Active | Active | 17.3 µM | Active | 0.9 | 1.1 | 13.6 µM | 14.5 µM |
| COc1ccc(/C=C/c2cc(-c3ccccc3O)n(-c3ccccc3)n2)cc1OC | >2.6 | > 2.6 | 18.5 µM | 19.2 µM | > 50 µM | Active | Active | >2.6 | Active | Active | 15.9 µM | Active | >2.6 | > 2.6 | 18.6 µM | 13 µM |
| Oc1ccccc1-c1cc(/C=C/c2ccc(Cl)cc2)nn1-c1ccccc1 | 1.5 | 1.5 | 16.5 µM | 26.3 µM | 40.5 µM | Active | Active | 1.5 | Active | Active | 15.8 µM | Active | 1.5 | 1.5 | 13.4 µM | 15.2 µM |
| COc1cccc(/C=C/c2cc(-c3ccccc3O)n(-c3ccccc3)n2)c1 | >2.2 | > 2.2 | 22.1 µM | 22.8 µM | > 50 µM | Active | Active | >2.2 | Active | Active | 20 µM | Active | >2.2 | > 2.2 | 14.3 µM | 16.2 µM |
| COc1ccc(/C=C/c2cc(-c3cc(Cl)ccc3O)n(-c3ccccc3)n2)cc1 | 2.2 | 2.2 | 19.8 µM | 20.9 µM | 47 µM | Active | Active | 2.2 | Active | Active | 17.2 µM | Active | 2.2 | 2.2 | 14.3 µM | 12.1 µM |
| Oc1ccc(Cl)cc1-c1cc(/C=C/c2ccccc2Cl)nn1-c1ccccc1 | 1.5 | 1.5 | 9.5 µM | 13.2 µM | 19.7 µM | Active | Active | 0.9 | Active | Active | 10.9 µM | Active | 1.5 | 0.9 | 5.1 µM | 5.7 µM |
